Like-named read-outs stand apart in the source and are kept apart here. Non-standard residues stand in square brackets, D forms with d. Residues, ends and D or L forms follow the SMILES beside them. Nle = CCCC[C@H](N)C(=O)O

Data on eight molecules can be found in US20100016228A1, “TRUNCATED BARD1 PROTEIN, AND ITS DIAGNOSTIC AND THERAPEUTIC USES” (Ayanda Biosystems SA, priority 2000, published 2010).

In assay [1] the test system is human BARD1 protein (SEQ ID NO:1). Put plainly: in vitro cleavage of 35S-labeled human BARD1 by NaB-treated SW48 cell extracts, inhibition by protease inhibitors. It is filed as biochemical. As for the experimental part:
(§1) The human BARD1 protein (SEQ ID NO:1), labeled with ^35S-methionine, was transcribed and translated in vitro using the TNT coupled reticulocytes lysate system kit (Promega). 1 μg of plasmid was used in a reaction medium for the transcription and the translation, containing 4 μl of ^35S-methionine (NEN). For the in vitro cleavage, 2 μl of transcription/translation products were incubated with apoptotic or nonapoptotic cell extracts prepared in a DIV buffer (20 mM HEPES. PH 7.5, 10 mM NaCl, 1.5 mM MgCl2, 0.1% SB14, 0.5 mM PMSF) at 37° C. for the period of time indicated. […] Inhibition of the cleavage was evaluated by adding caspase inhibitors or a proteasome inhibitor (lactacystine) (Calbiochem) or the calpain inhibitor I (ALLnL) (Chemicon).
To define the proteolytic activity responsible for the cleavage of hBARD1 (SEQ ID NO:1), various preparations of cell extracts from SW48 cells treated with NAB were tested. It appears that both the nuclear preparations and the mitochondrial preparations were capable of cleaving hBARD1 (SEQ ID NO:1). The supernatant at 13,000×g of the organelle preparation had no effect.

In a further assay the test system is caspases 3, 6 and 8. Put plainly: caspase activity in extracts of NaB-treated SW48 cells (fluorogenic substrates). The class given is cell-based, human. To be noted: during NaB treatment of SW48 cells; caspase 3 most active after 6 and 12 hours. Here is the method:
For assaying the caspase activity, 10 μg of cell extracts were diluted in 5 μl of DIV buffer:
Acetyl-Asp-Glu-Val-Asp-7-amino-4-methylcoumarin (Ac-DEVD-AMC), acetyl-Val-Glu-Ile-Asp-7-amino-4-methylcoumarin (Ac-VEID-AMC) and […] (Bachem), substrates for caspases 3, 6 and 8, respectively, were added at a final concentration of 50 μM. The cleavage activity was controlled on Fluorolite 1000 (Dynatech laboratories).

A further assay relates to SW48 cells. The assay can be described thus: NaB treatment of SW48 cells: induction of BARD1 and calpastatin cleavage. As to conditions: SW48 cells treated with NaB. It is filed as cell-based, human. Here is the method:
Apoptosis was induced by treatment with sodium butyrate (NaB). The cells at different stages of confluence were treated in complete medium at 37° C. and with 5 mM of NaB (Sigma) for various periods of time. The apoptotic bodies were purified as previously described (Gautier et al., 1999):
as §1
The SW48 cells were arrested in G0 by contact inhibition in 175 cm^2 flasks. After confluencing for 3 days, the cells were split 1:10 in 75 cm^2 flasks at a concentration of 3×10^6 cells per flask. 12, 20, 28, 36 and 44 hours after seeding, the cells were treated with 5 mM of NaB for 24 hours and collected. To determine the cell cycle distribution at each time, the content of each flask was subjected to trypsinization, washed three times in 10 ml of ice-cold PBS, and fixed with 1 ml of ice-cold 70% ethanol, added dropwise, for 16 hours at −20° C. The fixed cells were pelletted, resuspended in 500 μl of PC buffer (96% 0.2M Na2HPO4, 4% 15 0.1M citric acid, pH 7.8) and left at ambient temperature for 30 minutes. They were then washed and resuspended in 500 μl of propidium iodide in a staining solution (PBS, 0.12% Triton X-100, 0.12 mM EDTA, 100 μg/ml RNase A), incubated for 30 minutes at 37° C. and analyzed on a FACScan (flow cytometer) (Beckton Dickinson). […]

In a further assay the test system is PROb tumors. Put plainly: vaccination of BDIX rats, then subcutaneous PROb tumor challenge. It is filed as in vivo. To be noted: three weekly intraplantar injections of 100 μg in complete Freund's adjuvant; PROb cells s.c. two weeks after final immunization; versus control protein (fucosyl transferase). As for the experimental part:
Two groups of BDIX rats were given three weekly intraplantar injections of 100 μg of F1 fragment (amino acids 460-611) of BARD1 (SEQ ID NO:9) or of a controlled protein (fucosyl transferase) purified under the same conditions as the F1 fragment. The proteins were emulsified in 100 μl of complete Freund's adjuvant. Two weeks after the final immunization, the rat colon tumor cells (PROb, 50×10^3/rat) were injected subcutaneously and the volume of the PROb tumors was estimated.

As to `O=C(O)CN(CCOCCOCCN(CC(=O)O)CC(=O)O)CC(=O)O` [EGTA], the “inhibition of the hydrolysis of hBARD1” value in assay [1] was “inhibited”; in assay [1] (dose-dependent manner), “strongly inhibited”.

For “benzyloxycarbonyl-Asp-Glu-Val-Asp-fluoromethylketone [Z-DEVD-frnk]”, the “inhibition of the hydrolysis of hBARD1” value in assay [1] is given as “no effect”.

Regarding “benzyloxycarbonyl-Val-Glu-Ile-Asp-fluoromethyl ketone [Z-VEID-fmk]”, in assay [1], the “inhibition of the hydrolysis of hBARD1” value was “no effect”.

In the case of `CCCC(=O)[O-].[Na+]` [NaB, sodium butyrate], the “activities of caspases 3, 6 and 8” value in the assay on caspases 3, 6 and 8 is reported as “gradually increased”. Moreover, in the assay on SW48 cells, the “treatment time after which BARD1 cleavage was virtually complete” value was about 12 h, the “treatment time after which calpastatin was completely cleaved” value is 12 h and the “treatment time after which the p67 protein appeared” value turned out to be 4 h.

For `CC(=O)N[C@@H](CSC(=O)[C@]1([C@@H](O)C(C)C)NC(=O)[C@H](C)[C@@H]1O)C(=O)O` [lactacystine], in assay [1] (even at concentrations of 100 μm), the “blocking of the proteolysis of hBARD1” value was “does not block”.

For the molecule `CCCC[C@@H](C=O)NC(=O)[C@H](CC(C)C)NC(=O)[C@H](CC(C)C)NC(C)=O` [ALLnL, N-acetyl-leu-leu-norleucinal] (Ac-Leu-Leu-[Nle]-aldehyde), the “inhibition of the hydrolysis of hBARD1” value is “inhibited” in assay [1] and “strongly inhibited” in assay [1] (dose-dependent manner).

As for “benzyloxycarbonyl-Val-Ala-Asp-fluoromethylketone [ZVAD-fmk]”, the “inhibition of the hydrolysis of hBARD1” value in assay [1] (high concentration (100 μM)) is “slightly inhibited”.

B1: BARD1 fragment: F1 fragment (amino acids 460-611) of rat BARD1 with N-terminal 6xHis tag, expressed in E. coli (protein, listed as Rattus norvegicus)
chain: SHGHLKIVELLLQHNALVNTTGYHNDSPLHDAAKNGHIDIVKVLLSHGASRNAVNIFGERPVDYTDAENIRSLLLLPEKTDSFSTSQCSVQVNTGQRKSGPLVLIGSGLSSQQQKLLSKLETVLKAKKCAEFDNTVTHVIVPDEEAQSTLKC
modifications: N-terminal 6xHis tag
notes: F1 fragment (amino acids 460-611) of rat BARD1 with N-terminal 6xHis tag, expressed in E. coli
As to B1, the “PROb tumor growth (tumor volume)” value in the assay with PROb tumors is given as “slowing down of tumor growth”.
